Experimental data: patent publication US20260184663A1, “INDENE COMPOUNDS, PHARMACEUTICAL COMPOSITIONS THEREOF, AND THEIR THERAPEUTIC APPLICATIONS” (NucMito Pharmaceuticals co. Ltd., priority 2022, published 2026)

Key:
Type in all cases: cell-based
HeLa (cervical cancer) = test: Antiproliferative activity (CCK-8 cell viability), HeLa; conditions: Homo sapiens, 72 h; for inhibition at 3.3 µM: Compound concentration: 3.3 μM; for inhibition at 3.3 µM / inhibition at 10 µM: read-out: Antiproliferative activity in cancerous cells, HELA (inhibition of cell growth); for inhibition at 10 µM: Compound concentration: 10 μM
In short: (§1)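 Growth inhibition graded in bands from percent viability against DMSO vehicle, read as CCK-8 absorbance at 450 nm. Compound tested at 3.3, 10 or 30 μM for 72 h, 37 °C; media contained 10% FBS: DMEM for HepG2/SW480, MEM for HeLa, F-12K for A549.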

[1] = system: A549 (lung adenocarcinoma); test: Antiproliferative activity (CCK-8 cell viability), A549; conditions: Homo sapiens, 72 h; for inhibition at 3.3 µM: Compound concentration: 3.3 μM; for inhibition at 3.3 µM / inhibition at 10 µM: read-out: Antiproliferative activity in cancerous cells, A549 (inhibition of cell growth); for inhibition at 10 µM: Compound concentration: 10 μM
In short: as §1

[2] = system: MDA-MB-231 (breast cancer); test: Antiproliferative activity (CCK-8 cell viability), MDA-MB-231; conditions: Homo sapiens, 72 h, read-out: Antiproliferative activity in cancerous cells, MDA-MB-231 (inhibition of cell growth); for inhibition at 3.3 µM: Compound concentration: 3.3 μM; for inhibition at 10 µM: Compound concentration: 10 μM
In short: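 Growth inhibition of human MDA-MB-231 breast cancer cells was assessed with a Cell Counting Kit-8. Cells cultured in DMEM plus 10% FBS were seeded at 2,000-5,000 cells/well, treated after attachment, and kept 72 h at 37° C. CCK-8 solution (10 μL) was added for 4 h, and absorbance at 450 nm was compared with DMSO-treated controls.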

SW480 (colon cancer) = test: Antiproliferative activity (CCK-8 cell viability), SW480; conditions: Homo sapiens, 72 h; for inhibition at 3.3 µM: Compound concentration: 3.3 μM; for inhibition at 3.3 µM / inhibition at 10 µM: read-out: Antiproliferative activity in cancerous cells, SW480 (inhibition of cell growth); for inhibition at 10 µM: Compound concentration: 10 μM
In short: as §1

HepG2 (liver cancer) = test: Antiproliferative activity (CCK-8 cell viability), HepG2; conditions: Homo sapiens, 72 h; for inhibition at 3.3 µM: Compound concentration: 3.3 μM; for inhibition at 3.3 µM / inhibition at 10 µM: read-out: Antiproliferative activity in cancerous cells, HepG2 (inhibition of cell growth); for inhibition at 10 µM: Compound concentration: 10 μM; for inhibition at 30 µM: Compound concentration: 30 μM, read-out: Antiproliferative activity in cancerous cells, HepG2
In short: as §1

[3] = system: alpha-smooth muscle actin (α-SMA); test: Inhibition of TGF-β induced expression of alpha-smooth muscle actin (α-SMA) in CFSC cells (western blot); conditions: compound at 10 μM, TGF-β (10 ng/mL), 24 hours, band intensity vs TGF-β only
In short: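 Values are percent reduction of α-SMA band intensity relative to cells given TGF-β alone, quantified by Western blot densitometry with β-actin probed. Compound was applied at 10 μM alongside 10 ng/mL TGF-β to serum-free CFSC cultures for 24 h at 37 °C.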

[4] = system: B16F10 (malignant melanoma); test: Antiproliferative activity (CCK-8 cell viability), B16F10; conditions: Mus musculus, 72 h; for inhibition at 3.3 µM: B16-F10, Compound concentration: 3.3 μM; for inhibition at 3.3 µM / inhibition at 10 µM: read-out: Antiproliferative activity in cancerous cells, B16F10 (inhibition of cell growth); for inhibition at 10 µM: B16-F10, Compound concentration: 10 μM
In short: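 Cell growth inhibition was measured in B16F10 malignant melanoma cells with a Cell Counting Kit-8 viability assay. Cells were maintained in DMEM plus 10% fetal bovine serum, seeded at 2,000-5,000 cells/well in 96-well plates, and treated for 72 h at 37° C. Viability was expressed relative to DMSO-treated vehicle control wells.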

[5] = system: A431 (epidermoid carcinoma); test: Antiproliferative activity (CCK-8 cell viability), A431; conditions: Homo sapiens, 72 h; for inhibition at 3.3 µM: A-431, Compound concentration: 3.3 μM; for inhibition at 3.3 µM / inhibition at 10 µM: read-out: Antiproliferative activity in cancerous cells, A431 (inhibition of cell growth); for inhibition at 10 µM: A-431, Compound concentration: 10 μM
In short: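 This growth inhibition assay used A431 cells maintained in Dulbecco's modified Eagle's medium plus 10% fetal bovine serum. Cells were seeded in 96-well plates, treated with compound for 72 h at 37° C., and then given 10 μL CCK-8 solution. After a further 4 h, absorbance was read at 450 nm.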

Row | SMILES | inhibition at 3.3 µM (HeLa (cervical cancer)) [%] | inhibition at 10 µM (HeLa (cervical cancer)) [%] | inhibition at 3.3 µM [1] [%] | inhibition at 10 µM [1] [%] | inhibition at 3.3 µM [2] [%] | inhibition at 10 µM [2] [%] | inhibition at 3.3 µM (SW480 (colon cancer)) [%] | inhibition at 10 µM (SW480 (colon cancer)) [%] | inhibition at 3.3 µM (HepG2 (liver cancer)) [%] | inhibition at 10 µM (HepG2 (liver cancer)) [%] | inhibition at 10 µM [3] [%] | inhibition at 3.3 µM [4] [%] | inhibition at 10 µM [4] [%] | inhibition at 3.3 µM [5] [%] | inhibition at 10 µM [5] [%] | also measured
1 | CC1=C(CC(=O)NCCN2CCOCC2)c2cc(F)ccc2/C1=C\c1ccc(Oc2ccc(F)cc2)cc1 [C39, (Z)-2-(5-Fluoro-1-(4-(4-fluorophenoxy)benzylidene)-2-methyl-1H-inden-3-yl)-N-(2-morpholinoethyl)acetamide] | < 30 | < 30 | < 30 | 30 to 50 | < 30 | < 30 | < 30 | < 30 | < 30 | < 30 | 50 to 80 | < 30 | < 30 | < 30 | < 30 | inhibition at 30 µM (HeLa (cervical cancer); Compound concentration: 30 μM, read-out: Antiproliferative activity in cancerous cells, HELA): < 30%; inhibition at 30 µM ([1]; Compound concentration: 30 μM, read-out: Antiproliferative activity in cancerous cells, A549): 30 to 50%; inhibition at 30 µM (HepG2 (liver cancer)): < 30%; inhibition at 30 µM ([4]; B16-F10, Compound concentration: 30 μM, read-out: Antiproliferative activity in cancerous cells, B16F10): < 30%; inhibition at 30 µM ([5]; A-431, Compound concentration: 30 μM, read-out: Antiproliferative activity in cancerous cells, A431): < 30%
2 | COc1ccc2c(c1)/C(=C\c1ccc(Oc3ccc(F)cc3)cc1)C=C2CC(=O)O [C2, (Z)-2-(1-(4-(4-Fluorophenoxy)benzylidene)-6-methoxy-1H-inden-3-yl)acetic acid] | 30 to 50 | ≥ 50 | < 30 | < 30 | ≥ 50 | ≥ 50 | ≥ 50 | 30 to 50 | 30 to 50 | 30 to 50 | > 80 | < 30 | ≥ 50 | 30 to 50 | ≥ 50 | –
3 | CCCC1=C(CC(=O)O)c2cc(F)ccc2/C1=C\c1cccc(COc2ccccc2)c1 [A7, (Z)-2-(5-Fluoro-1-(3-(phenoxymethyl)benzylidene)-2-propyl-1H-inden-3-yl)-acetic acid] | < 30 | ≥ 50 | 30 to 50 | ≥ 50 | ≥ 50 | ≥ 50 | < 30 | ≥ 50 | ≥ 50 | < 30 | > 80 | 30 to 50 | ≥ 50 | < 30 | ≥ 50 | –
4 | CCCC1=C(CC(=O)O)c2cc(F)ccc2/C1=C\c1ccc(COc2ccccc2)cc1 [A4, (Z)-2-(5-Fluoro-1-(4-(phenoxymethyl)benzylidene)-2-propyl-1H-inden-3-yl)-acetic acid] | ≥ 50 | ≥ 50 | 30 to 50 | ≥ 50 | ≥ 50 | ≥ 50 | < 30 | 30 to 50 | 30 to 50 | ≥ 50 | 50 to 80 | 30 to 50 | ≥ 50 | < 30 | ≥ 50 | –
5 | CC1=C(CC(=O)O)c2c(F)cccc2/C1=C\c1cccc(COc2ccccc2)c1 [B13, (Z)-2-(4-Fluoro-2-methyl-1-(3-(phenoxymethyl)benzylidene)-1H-inden-3-yl)-acetic acid] | 30 to 50 | ≥ 50 | 30 to 50 | 30 to 50 | ≥ 50 | ≥ 50 | < 30 | < 30 | < 30 | 30 to 50 | < 30 | 30 to 50 | ≥ 50 | < 30 | 30 to 50 | inhibition at 30 µM (SW480 (colon cancer); Compound concentration: 30 μM, read-out: Antiproliferative activity in cancerous cells, SW480): 30 to 50%; inhibition at 30 µM (HepG2 (liver cancer)): 30 to 50%
6 | CCC1=C(CC(=O)O)c2cc(F)ccc2/C1=C\c1cccc(Oc2ccccc2)c1 [C19, (Z)-2-(2-Ethyl-5-fluoro-1-(3-phenoxybenzylidene)-1H-inden-3-yl)acetic acid] | 30 to 50 | ≥ 50 | 30 to 50 | ≥ 50 | ≥ 50 | ≥ 50 | < 30 | < 30 | < 30 | 30 to 50 | > 80 | < 30 | ≥ 50 | < 30 | ≥ 50 | –
7 | O=C(O)CC1=C(Cc2ccc(Oc3ccc(F)cc3)cc2)/C(=C/c2cccc(C(F)(F)F)c2)c2ccc(F)cc21 [A109, (Z)-2-(5-Fluoro-2-(4-(4-fluorophenoxy)benzyl)-1-(3-(trifluoromethyl)-benzylidene)-1H-inden-3-yl)acetic acid] | < 30 | ≥ 50 | ≥ 50 | ≥ 50 | ≥ 50 | ≥ 50 | < 30 | < 30 | < 30 | < 30 | > 80 | < 30 | ≥ 50 | 30 to 50 | ≥ 50 | –
